In PubChem BioAssay (NCI):
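Results reflect a 48-hour exposure of cells in 96-well plates to compound at five concentrations. The concentration for 50% growth inhibition is given as GI50. TGI: total growth inhibition.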

Experiments:
Assay in all cases: NCI tumour cell line growth inhibition, 48 h
[1] = tested on: TK-10 renal
[2] = tested on: CCRF-CEM leukemia
[3] = tested on: UO-31 renal
[4] = tested on: SN12C renal
[5] = tested on: ACHN renal
[6] = tested on: MCF7 breast
[7] = tested on: SF-268 CNS
[8] = tested on: SF-539 CNS
[9] = tested on: A498 renal
[10] = tested on: UACC-257 melanoma
[11] = tested on: IGROV1 ovarian
[12] = tested on: MDA-MB-231 breast
[13] = tested on: SK-MEL-5 melanoma
[14] = tested on: CAKI-1 renal
[15] = tested on: NCI-H522 lung
[16] = tested on: SK-MEL-2 melanoma
[17] = tested on: RPMI-8226 leukemia
[18] = tested on: A549 NSCLC
[19] = tested on: EKVX NSCLC
[20] = tested on: MOLT-4 leukemia
[21] = tested on: HCT-116 colon
[22] = tested on: OVCAR-8 ovarian
[23] = tested on: LOX IMVI melanoma
[24] = tested on: MDA-MB-435
[25] = tested on: HCT-15 colon
[26] = tested on: BT-549 breast
[27] = tested on: SNB-19 CNS
[28] = tested on: OVCAR-5 ovarian
[29] = tested on: SW-620 colon
[30] = tested on: HOP-62 NSCLC
[31] = tested on: OVCAR-4 ovarian
[32] = tested on: NCI-H23 lung
[33] = tested on: SR leukemia
[34] = tested on: NCI-H460 lung
[35] = tested on: M14 melanoma
[36] = tested on: RXF 393 renal
[37] = tested on: HCC-2998 colon
[38] = tested on: NCI/ADR-RES ovarian
[39] = tested on: PC-3 prostate
[40] = tested on: UACC-62 melanoma
[41] = tested on: MALME-3M melanoma
[42] = tested on: SF-295 CNS
[43] = tested on: SNB-75 CNS
[44] = tested on: U251 CNS
[45] = tested on: COLO 205 colon
[46] = tested on: NCI-H226 lung
[47] = tested on: OVCAR-3 ovarian
[48] = tested on: HT29 colon
[49] = tested on: SK-OV-3 ovarian
[50] = tested on: DU-145 prostate
[51] = tested on: HL-60(TB) leukemia
[52] = tested on: KM12 colon
[53] = tested on: SK-MEL-28 melanoma
[54] = tested on: K-562 leukemia
[55] = tested on: 786-0 renal
[56] = tested on: HS 578T breast
[57] = tested on: T-47D breast

**Q.** For CCN(CCNc1ccc(C)c2sc3cc(Cl)ccc3c(=O)c12)CC(C)(C)O, which GI50 [1] is on record?
**A.** 3.59 µM

**Q.** And the TGI [1]?
**A.** 13.9 µM

**Q.** What about the GI50 [2] of the same molecule?
**A.** 7.5 µM

**Q.** And the TGI [2]?
**A.** 61 µM

**Q.** And the GI50 [3]?
**A.** 1.3 µM

**Q.** What about the TGI [3] of the same molecule?
**A.** 3.53 µM

**Q.** And the GI50 [4]?
**A.** 20.8 µM

**Q.** And the TGI [4]?
**A.** > 100 µM

**Q.** What about the GI50 [5] of the same molecule?
**A.** 12.7 µM

**Q.** And the TGI [5]?
**A.** 65 µM

**Q.** And the GI50 [6]?
**A.** 11.7 µM

**Q.** And the TGI [6]?
**A.** 26.9 µM

**Q.** And the GI50 [7]?
**A.** 16.5 µM

**Q.** And the TGI [7]?
**A.** 69.4 µM

**Q.** What about the GI50 [8] of the same molecule?
**A.** 5.54 µM

**Q.** What about the TGI [8] of the same molecule?
**A.** 24 µM

**Q.** What about the GI50 [9] of the same molecule?
**A.** 3.47 µM

**Q.** What about the TGI [9] of the same molecule?
**A.** 14.9 µM

**Q.** What about the GI50 [10] of the same molecule?
**A.** 2.03 µM

**Q.** And the TGI [10]?
**A.** 4.37 µM

**Q.** What about the GI50 [11] of the same molecule?
**A.** 2.68 µM

**Q.** And the TGI [11]?
**A.** 19.1 µM

**Q.** What about the GI50 [12] of the same molecule?
**A.** 2.31 µM

**Q.** What about the TGI [12] of the same molecule?
**A.** 11.5 µM

**Q.** And the GI50 [13]?
**A.** 1.83 µM

**Q.** And the TGI [13]?
**A.** 3.49 µM

**Q.** What about the GI50 [14] of the same molecule?
**A.** 1.51 µM

**Q.** What about the TGI [14] of the same molecule?
**A.** 4.9 µM

**Q.** What about the GI50 [15] of the same molecule?
**A.** 3.82 µM

**Q.** What about the TGI [15] of the same molecule?
**A.** 20 µM

**Q.** What about the GI50 [16] of the same molecule?
**A.** 3.28 µM

**Q.** And the TGI [16]?
**A.** 14.2 µM

**Q.** What about the GI50 [17] of the same molecule?
**A.** 3.86 µM

**Q.** And the TGI [17]?
**A.** 22.2 µM

**Q.** What about the GI50 [18] of the same molecule?
**A.** 5.2 µM

**Q.** And the TGI [18]?
**A.** 19.5 µM

**Q.** And the GI50 [19]?
**A.** 3.41 µM

**Q.** What about the TGI [19] of the same molecule?
**A.** 21.6 µM

**Q.** And the GI50 [20]?
**A.** 15.5 µM

**Q.** What about the TGI [20] of the same molecule?
**A.** 73.7 µM

**Q.** And the GI50 [21]?
**A.** 4.94 µM

**Q.** And the TGI [21]?
**A.** 18.2 µM

**Q.** And the GI50 [22]?
**A.** 22.5 µM

**Q.** And the TGI [22]?
**A.** > 100 µM

**Q.** And the GI50 [23]?
**A.** 3.07 µM

**Q.** What about the TGI [23] of the same molecule?
**A.** 10.3 µM

**Q.** And the GI50 [24]?
**A.** 2 µM

**Q.** What about the TGI [24] of the same molecule?
**A.** 4.59 µM

**Q.** What about the GI50 [25] of the same molecule?
**A.** 3.3 µM

**Q.** What about the TGI [25] of the same molecule?
**A.** 12 µM

**Q.** And the GI50 [26]?
**A.** 18.7 µM

**Q.** And the TGI [26]?
**A.** > 100 µM

**Q.** What about the GI50 [27] of the same molecule?
**A.** 10.1 µM

**Q.** And the TGI [27]?
**A.** 25.8 µM

**Q.** What about the GI50 [28] of the same molecule?
**A.** 10.5 µM

**Q.** What about the TGI [28] of the same molecule?
**A.** 27.7 µM

**Q.** What about the GI50 [29] of the same molecule?
**A.** 3.64 µM

**Q.** What about the TGI [29] of the same molecule?
**A.** 13.4 µM

**Q.** And the GI50 [30]?
**A.** 3.87 µM

**Q.** And the TGI [30]?
**A.** 16.1 µM

**Q.** And the GI50 [31]?
**A.** 24.6 µM

**Q.** What about the TGI [31] of the same molecule?
**A.** > 100 µM

**Q.** What about the GI50 [32] of the same molecule?
**A.** 6.88 µM

**Q.** And the TGI [32]?
**A.** 24.1 µM

**Q.** What about the GI50 [33] of the same molecule?
**A.** 9.48 µM

**Q.** What about the TGI [33] of the same molecule?
**A.** > 100 µM

**Q.** What about the GI50 [34] of the same molecule?
**A.** 2.33 µM

**Q.** And the TGI [34]?
**A.** 5 µM

**Q.** And the GI50 [35]?
**A.** 1.95 µM

**Q.** And the TGI [35]?
**A.** 4.01 µM

**Q.** And the GI50 [36]?
**A.** 2.3 µM

**Q.** And the TGI [36]?
**A.** 5.4 µM

**Q.** And the GI50 [37]?
**A.** 2.02 µM

**Q.** And the TGI [37]?
**A.** 4.08 µM

**Q.** What about the GI50 [38] of the same molecule?
**A.** 6.37 µM

**Q.** And the TGI [38]?
**A.** 30.5 µM

**Q.** And the GI50 [39]?
**A.** 12 µM

**Q.** And the TGI [39]?
**A.** > 100 µM

**Q.** What about the GI50 [40] of the same molecule?
**A.** 1.67 µM

**Q.** What about the TGI [40] of the same molecule?
**A.** 3.37 µM

**Q.** What about the GI50 [41] of the same molecule?
**A.** 2.16 µM

**Q.** What about the TGI [41] of the same molecule?
**A.** 7.3 µM

**Q.** What about the GI50 [42] of the same molecule?
**A.** 1.86 µM

**Q.** And the TGI [42]?
**A.** 4.34 µM

**Q.** And the GI50 [43]?
**A.** 3.31 µM

**Q.** What about the TGI [43] of the same molecule?
**A.** 16.8 µM

**Q.** And the GI50 [44]?
**A.** 4.51 µM

**Q.** And the TGI [44]?
**A.** 18.5 µM

**Q.** What about the GI50 [45] of the same molecule?
**A.** 1.89 µM

**Q.** And the TGI [45]?
**A.** 3.94 µM

**Q.** And the GI50 [46]?
**A.** 14 µM

**Q.** What about the TGI [46] of the same molecule?
**A.** 30.7 µM

**Q.** What about the GI50 [47] of the same molecule?
**A.** 18.6 µM

**Q.** What about the TGI [47] of the same molecule?
**A.** 62.9 µM

**Q.** What about the GI50 [48] of the same molecule?
**A.** 2 µM

**Q.** And the TGI [48]?
**A.** 4.86 µM

**Q.** What about the GI50 [49] of the same molecule?
**A.** 6.21 µM

**Q.** What about the TGI [49] of the same molecule?
**A.** 20.4 µM

**Q.** And the GI50 [50]?
**A.** 13.1 µM

**Q.** What about the TGI [50] of the same molecule?
**A.** 40.6 µM

**Q.** And the GI50 [51]?
**A.** 12.2 µM

**Q.** What about the TGI [51] of the same molecule?
**A.** 44.7 µM

**Q.** And the GI50 [52]?
**A.** 2.32 µM

**Q.** And the TGI [52]?
**A.** 5.54 µM

**Q.** What about the GI50 [53] of the same molecule?
**A.** 2.09 µM

**Q.** What about the TGI [53] of the same molecule?
**A.** 4.34 µM

**Q.** And the GI50 [54]?
**A.** 3.19 µM

**Q.** And the TGI [54]?
**A.** 11.7 µM

**Q.** And the GI50 [55]?
**A.** 5.13 µM

**Q.** What about the TGI [55] of the same molecule?
**A.** 17.7 µM

**Q.** What about the GI50 [56] of the same molecule?
**A.** 5.01 µM

**Q.** And the TGI [56]?
**A.** 21.2 µM

**Q.** What about the GI50 [57] of the same molecule?
**A.** 11.8 µM

**Q.** What about the TGI [57] of the same molecule?
**A.** 37.5 µM
